Assay results published in ChEMBL document CHEMBL1157791, “Discovery of GSK1070916, a potent and selective inhibitor of Aurora B/C kinase” (J Med Chem, 2010).
pEC50, pIC50: −log10 of the molar value.

Assays:
A549 [1] = experiment: Antiproliferative activity against human A549 cells after 6 to 7 days by celltiter-glo luminescence assay in absence of 70% human serum albumin; assay type: functional, cell-based
Aurora kinase B = Aurora kinase B (Homo sapiens, UniProt Q96GD4); experiment: Inhibition of human Aurora B by in vitro inhibition assay
Aurora kinase A = biological target: T1, Aurora kinase A (Homo sapiens, UniProt O14965); experiment: Inhibition of human Aurora A
T1 sequence (O14965 whole entry): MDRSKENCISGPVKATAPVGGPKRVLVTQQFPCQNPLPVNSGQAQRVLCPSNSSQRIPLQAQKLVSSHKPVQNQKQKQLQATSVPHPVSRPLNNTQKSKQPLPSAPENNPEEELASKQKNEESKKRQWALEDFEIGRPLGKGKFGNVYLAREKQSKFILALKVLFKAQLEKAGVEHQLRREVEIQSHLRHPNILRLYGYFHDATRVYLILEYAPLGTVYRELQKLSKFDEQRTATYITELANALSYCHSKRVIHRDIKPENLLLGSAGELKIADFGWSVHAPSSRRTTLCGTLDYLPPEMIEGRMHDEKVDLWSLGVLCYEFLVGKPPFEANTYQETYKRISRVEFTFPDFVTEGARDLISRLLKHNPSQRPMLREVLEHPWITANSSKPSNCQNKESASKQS

A549 [2] = experiment: Selectivity ratio of EC50 for human A549 cells in presence of 70% human serum albumin to EC50 for human A549 cells in absence of 70% human serum albumin; assay type: functional

Aurora kinase B, sequence (Q96GD4 whole entry): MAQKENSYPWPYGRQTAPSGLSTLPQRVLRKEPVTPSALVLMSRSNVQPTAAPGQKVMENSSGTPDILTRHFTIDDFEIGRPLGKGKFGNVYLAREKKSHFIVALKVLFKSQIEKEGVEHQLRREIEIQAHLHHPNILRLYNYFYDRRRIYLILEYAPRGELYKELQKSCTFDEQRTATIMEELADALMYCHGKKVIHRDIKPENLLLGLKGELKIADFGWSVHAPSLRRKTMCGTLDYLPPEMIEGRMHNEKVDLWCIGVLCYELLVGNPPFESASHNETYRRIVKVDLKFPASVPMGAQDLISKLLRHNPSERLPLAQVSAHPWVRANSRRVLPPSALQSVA

Row | Compound | pEC50 (A549 [1]) | pIC50 (Aurora kinase B) | pIC50 (Aurora kinase A) | Ratio EC50 (A549 [2])
1 | CC(C)(C)n1ncc(-c2ccnc3[nH]ccc23)c1-c1ccc(NC(=O)Nc2ccccc2)cc1 | 6.05 | 7.40 | 5.24 | –
2 | CCNC(=O)Nc1ccc(-c2nn(CC)cc2-c2ccnc3[nH]c(-c4cccc(CN5CCOCC5)c4)cc23)cc1 | 7.59 | 8.30 | 7.15 | –
3 | CCn1cc(-c2ccnc3[nH]c(CNCCS(C)(=O)=O)cc23)c(-c2ccc(NC(=O)Nc3ccccc3)cc2)n1 | 4.94 | 7.62 | 6.24 | 10
4 | O=C(Nc1ccccc1)Nc1ccc(-c2n[nH]cc2-c2ccnc3[nH]ccc23)cc1 | 4.89 | 7.49 | 5.41 | –
5 | CCn1ncc(-c2ccnc3[nH]ccc23)c1-c1ccc(NC(=O)Nc2ccccc2)cc1 | 5.80 | 7.60 | 5.25 | –
6 | CCNC(=O)Nc1ccc(-c2nn(CC)cc2-c2ccnc3[nH]c(-c4cccc(CN5CCCC5)c4)cc23)cc1 | 8.05 | 8.85 | 7.24 | –
7 | CCn1cc(-c2ccnc3[nH]c(CNCCN(C)C)cc23)c(-c2ccc(NC(=O)Nc3ccccc3)cc2)n1 | – | 6.56 | 5.26 | 10
8 | O=C(Nc1ccccc1)Nc1ccc(-c2nn(CCO)cc2-c2ccnc3[nH]ccc23)cc1 | 5.58 | 8.52 | 6.10 | –
9 | CCn1cc(-c2ccnc3[nH]ccc23)c(-c2ccc(NC(=O)N(C)C)cc2)n1 | – | – | < 5.00 | –
10 | CCNC(=O)Nc1ccc(-c2nn(CC)cc2-c2ccnc3[nH]c(-c4ccc(CN(C)C)cc4)cc23)cc1 | 8.22 | 8.77 | 7.41 | –
11 | O=C(Nc1ccccc1)Nc1ccc(-c2nn(CC(=O)N3CCOCC3)cc2-c2ccnc3[nH]ccc23)cc1 | < 4.70 | 7.07 | 5.17 | –
12 | CCn1cc(-c2ccnc3[nH]c(C(=O)NCCN4CCN(C)CC4)cc23)c(-c2ccc(NC(=O)Nc3ccccc3)cc2)n1 | 6.38 | 8.30 | 6.69 | 10
13 | CCn1cc(-c2ccnc3[nH]c(-c4cc(CN(C)C)ccc4C)cc23)c(-c2ccc(NC(=O)Nc3ccccc3)cc2)n1 | 6.76 | 7.22 | 6.95 | 10
14 | NC(=O)Cn1cc(-c2ccnc3[nH]ccc23)c(-c2ccc(NC(=O)Nc3ccccc3)cc2)n1 | < 4.70 | 7.19 | 5.25 | –
15 | O=C(Nc1ccccc1)Nc1ccc(-c2nn(CC3CCCO3)cc2-c2ccnc3[nH]ccc23)cc1 (stereo not given) | – | 7.01 | 5.21 | –
16 | CCn1cc(-c2ccnc3[nH]c(-c4ccc(NC(C)=O)cc4)cc23)c(-c2ccc(NC(=O)Nc3ccccc3)cc2)n1 | 6.96 | 7.36 | 7.21 | 10
17 | CCn1cc(-c2ccnc3[nH]c(-c4cccc(NC(C)=O)c4)cc23)c(-c2ccc(NC(=O)Nc3ccccc3)cc2)n1 | 6.81 | 7.36 | 6.90 | 10
18 | CCNC(=O)Nc1ccc(-c2nn(CC)cc2-c2ccnc3[nH]c(-c4ccc(CN5CCCC5)cc4)cc23)cc1 | 8.10 | 8.82 | 7.38 | –
19 | CCNC(=O)Nc1ccc(-c2nn(CC)cc2-c2ccnc3[nH]c(-c4ccc(CN5CCOCC5)cc4)cc23)cc1 | 7.92 | 8.33 | 7.64 | –
20 | CCn1cc(-c2ccnc3[nH]c(C(=O)NCCCN4CCN(C)CC4)cc23)c(-c2ccc(NC(=O)Nc3ccccc3)cc2)n1 | 6.20 | 8.10 | 6.64 | 10

Row | Compound | pEC50 (A549 [1]) | pIC50 (Aurora kinase B) | pIC50 (Aurora kinase A) | Ratio EC50 (A549 [2])
21 | CCn1cc(-c2ccnc3[nH]c(-c4ccc(CN5CCCC5)cc4)cc23)c(-c2ccc(NC(=O)N(C)C)cc2)n1 | 8.22 | 8.35 | 6.38 | –
22 | CCn1cc(-c2ccnc3[nH]c(C(=O)NCCN4CCOCC4)cc23)c(-c2ccc(NC(=O)Nc3ccccc3)cc2)n1 | 6.70 | 8.30 | 6.71 | 10
23 | CCn1cc(-c2ccnc3[nH]c(CN(C)C)cc23)c(-c2ccc(NC(=O)Nc3ccccc3)cc2)n1 | 5.36 | 7.24 | 5.77 | 10
24 | CCn1cc(-c2ccnc3[nH]c(-c4ccc(CN5CCOCC5)cc4)cc23)c(-c2ccc(NC(=O)N(C)C)cc2)n1 | 8.05 | 8.09 | 6.60 | –
25 | O=C(Nc1ccccc1)Nc1ccc(-c2nn(CC(F)(F)F)cc2-c2ccnc3[nH]ccc23)cc1 | 6.49 | 7.80 | 5.67 | –
26 | CCn1cc(-c2ccnc3[nH]c(-c4ccc(CN(C)C)cc4)cc23)c(-c2ccc(NC(=O)Nc3ccccc3)cc2)n1 | 8.10 | 7.64 | 7.35 | 10
27 | CCn1cc(-c2ccnc3[nH]c(-c4cccc(CN5CCCC5)c4)cc23)c(-c2ccc(NC(=O)Nc3ccccc3)cc2)n1 | 7.92 | 7.96 | 7.66 | 10
28 | CCNC(=O)Cn1cc(-c2ccnc3[nH]ccc23)c(-c2ccc(NC(=O)Nc3ccccc3)cc2)n1 | < 4.70 | 7.19 | 5.47 | –
29 | CCn1cc(-c2ccnc3[nH]c(CNCCO)cc23)c(-c2ccc(NC(=O)Nc3ccccc3)cc2)n1 | 4.73 | 7.34 | 5.55 | 10
30 | CCn1cc(-c2ccnc3[nH]c(-c4cccc(CN5CCCC5)c4)cc23)c(-c2ccc(NC(=O)N(C)C)cc2)n1 | 8.15 | 8.68 | 6.44 | –
31 | CCn1cc(-c2ccnc3[nH]c(CNCCCN4CCN(C)CC4)cc23)c(-c2ccc(NC(=O)Nc3ccccc3)cc2)n1 | < 4.70 | 7.08 | 5.29 | 10
32 | CCn1cc(-c2ccnc3[nH]c(CNCCN4CCOCC4)cc23)c(-c2ccc(NC(=O)Nc3ccccc3)cc2)n1 | 5.54 | 7.66 | 5.61 | 10
33 | CCn1cc(-c2ccnc3[nH]c(-c4cccc(CN5CCOCC5)c4)cc23)c(-c2ccc(NC(=O)Nc3ccccc3)cc2)n1 | 7.52 | 7.24 | 7.03 | 10
34 | O=C(Nc1ccccc1)Nc1ccc(-c2nn(CCCO)cc2-c2ccnc3[nH]ccc23)cc1 | 6.11 | 8.70 | 6.01 | –
35 | CCn1cc(-c2ccnc3[nH]c(-c4ccc(CN5CCOCC5)cc4)cc23)c(-c2ccc(NC(=O)Nc3ccccc3)cc2)n1 | 7.77 | 7.18 | 7.23 | 10
36 | CCn1cc(-c2ccnc3[nH]c(-c4ccc(CN(C)C)cc4C)cc23)c(-c2ccc(NC(=O)Nc3ccccc3)cc2)n1 | 7.80 | 7.59 | 7.38 | 10
37 | O=C(Nc1ccccc1)Nc1ccc(-c2nn(CC(O)CO)cc2-c2ccnc3[nH]ccc23)cc1 (stereo not given) | 5.02 | 9.00 | 6.42 | –
38 | CC(C)(C)n1cc(-c2ccnc3[nH]ccc23)c(-c2ccc(NC(=O)Nc3ccccc3)cc2)n1 | 6.32 | 7.30 | 5.09 | –
39 | CCn1cc(-c2ccnc3[nH]c(-c4cccc(CN5CCOCC5)c4)cc23)c(-c2ccc(NC(=O)N(C)C)cc2)n1 | 7.74 | 8.33 | 6.31 | –
